Read-outs that look alike come from different tables or passages of the source.

The target of experiment [1] is isolated recombinant JAK2 kinase domain (Homo sapiens, UniProt O60674). Put plainly: JAK enzyme assay (Caliper LabChip), JAK2 kinase domain. The note with it: ATP 25 μM, 0.2 nM JAK2, Morrison tight binding model.
Experimental: JAK Enzyme Assays were Carried Out as Follows:
The activity of the isolated recombinant JAK1 and JAK2 kinase domain was measured by monitoring phosphorylation of a peptide derived from JAK3 ([sequence] fluorescently labeled on the N-terminus with 5-carboxyfluorescein) using the Caliper LabChip® technology (Caliper Life Sciences, Hopkinton, Mass.). […] Reactions were incubated at 22° C. in 384-well polypropylene microtiter plates for 30 minutes and then stopped by addition of 25 μL of an EDTA containing solution (100 mM HEPES buffer (pH 7.2), 0.015% Brij-35, 150 mM EDTA), resulting in a final EDTA concentration of 50 mM. After termination of the kinase reaction, the proportion of phosphorylated product was determined as a fraction of total peptide substrate using the Caliper LabChip® 3000 according to the manufacturer's specifications.
Experiment [2] deals with JAK1-dependent STAT6 phosphorylation downstream of IL-13 stimulation, BEAS-2B cells. Put plainly: JAK1 pathway assay in cell lines: P-STAT6 in BEAS-2B cells + IL13. The note with it: BEAS-2B human bronchial epithelial cells, 1 hr compound preincubation, read-out: P-STAT6 BEAS2B + IL13 IC50. It is filed as cell-based. In a few lines:
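BEAS-2B human bronchial epithelial cells in complete growth medium, preincubated with compound for 1 hr at 37 °C (0.2% DMSO). Stimulation with IL-13 at EC90 for 15 min at 37 °C. Phospho-STAT6 measured in lysates by MSD; EC50 is the concentration giving 50% inhibition versus DMSO control.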

Experiment [3] addresses isolated recombinant JAK1 kinase domain (Homo sapiens, UniProt P23458). Put plainly: JAK enzyme assay (Caliper LabChip), JAK1 kinase domain. It counts as biochemical. The conditions noted are these: ATP 25 μM; 1.5 nM JAK1; Morrison tight binding model.

isolated recombinant JAK1 kinase domain, sequence (P23458 875-1153 limits assumed): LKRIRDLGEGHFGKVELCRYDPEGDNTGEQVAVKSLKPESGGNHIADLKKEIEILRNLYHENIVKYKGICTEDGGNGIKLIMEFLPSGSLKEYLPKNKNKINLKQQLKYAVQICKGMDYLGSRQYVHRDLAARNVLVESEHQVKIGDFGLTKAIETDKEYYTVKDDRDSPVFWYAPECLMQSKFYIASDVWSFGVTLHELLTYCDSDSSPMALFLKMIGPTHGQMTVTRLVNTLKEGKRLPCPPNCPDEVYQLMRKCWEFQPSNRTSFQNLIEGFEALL
isolated recombinant JAK2 kinase domain, sequence (O60674 849-1124 limits assumed): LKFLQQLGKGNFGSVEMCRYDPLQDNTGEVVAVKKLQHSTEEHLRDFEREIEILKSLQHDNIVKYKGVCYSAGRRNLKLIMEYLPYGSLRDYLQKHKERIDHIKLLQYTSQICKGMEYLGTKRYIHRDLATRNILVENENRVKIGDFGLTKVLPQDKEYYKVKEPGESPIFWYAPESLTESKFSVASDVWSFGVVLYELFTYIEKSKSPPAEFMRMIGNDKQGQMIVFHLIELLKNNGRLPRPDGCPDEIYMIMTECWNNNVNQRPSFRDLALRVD

`CSc1ccc(OC(F)F)c(-c2nn(CC(C)(C)O)cc2NC(=O)c2cnn3cccnc23)c1` [Example 19, N-[3-[2-(difluoromethoxy)-5-methylsulfanyl-phenyl]-1-(2-hydroxy-2-methyl-propyl)pyrazol-4-yl]pyrazolo[1,5-a]pyrimidine-3-carboxamide]: the Ki in experiment [1] worked out at 0.48 nM; in experiment [3], 0.36 nM. Further, the IC50 in experiment [2] (Homo sapiens, BEAS-2B, 1 h) was found to be 15 nM.

On to `O=C(Nc1c[nH]nc1-c1cc(SC2CCCNC2)ccc1OC(F)F)c1cnn2cccnc12` (single isomer, unassigned) [Example 36, N-[3-[2-(difluoromethoxy)-5-(3-piperidylsulfanyl)phenyl]-1H-pyrazol-4-yl]pyrazolo[1,5-a]pyrimidine-3-carboxamide], for which the Ki in experiment [1] worked out at 51.7 nM; in experiment [3], 91.5 nM. Besides, in experiment [2], the IC50 is above 1000 nM.

Consider `CC(C)Sc1ccc(OC(F)F)c(-c2nn(Cc3cn(C4CCN([C@H]5CCOC5)CC4)nn3)cc2NC(=O)c2cnn3cccnc23)c1` (stereo in doubt) [Example 11, N-[3-[2-(difluoromethoxy)-5-isopropylsulfanyl-phenyl]-1-[[1-[1-[rac-(3S)-tetrahydrofuran-3-yl]-4-piperidyl]triazol-4-yl]methyl]pyrazol-4-yl]pyrazolo[1,5-a]pyrimidine-3-carboxamide; formic acid], for which the Ki came to 0.49 nM in experiment [1] and 0.69 nM in experiment [3]. Moreover, the IC50 in experiment [2] (Homo sapiens, BEAS-2B, 1 h) is 23 nM.

For `CSc1ccc(OC(F)F)c(-c2nn(CC(=O)N3CCCCC3)cc2NC(=O)c2cnn3cccnc23)c1` [Example 29], the values for the Ki in experiment [1] and in experiment [3] were 0.39 nM and 0.25 nM, respectively. Further, the concentration for half-maximal inhibition (IC50) in experiment [2] (Homo sapiens, BEAS-2B, 1 h) amounted to 14 nM.

In the case of `CN(C)C(=O)Cn1cc(NC(=O)c2cnn3cccnc23)c(-c2cc(S(=O)(=O)C(F)F)ccc2OC(F)F)n1` [Example 50, N-(3-(2-(difluoromethoxy)-5-((difluoromethyl)sulfonyl)phenyl)-1-(2-(dimethylamino)-2-oxoethyl)-1H-pyrazol-4-yl)pyrazolo[1,5-a]pyrimidine-3-carboxamide], the Ki in experiment [1] amounted to 0.56 nM; in experiment [3] it was 0.3 nM. For the same molecule, in experiment [2] (Homo sapiens, BEAS-2B, 1 h), the IC50 was 38 nM.

Turning to `CSc1ccc(OC(F)F)c(-c2nn(CC(=O)N3CCC(O)CC3)cc2NC(=O)c2cnn3cccnc23)c1` [Example 23, N-[3-[2-(difluoromethoxy)-5-methylsulfanyl-phenyl]-1-[2-(4-hydroxy-1-piperidyl)-2-oxo-ethyl]pyrazol-4-yl]pyrazolo[1,5-a]pyrimidine-3-carboxamide], the values for the Ki in experiment [1] and in experiment [3] were 0.55 nM and 0.35 nM, respectively. In addition, the IC50 in experiment [2] (Homo sapiens, BEAS-2B, 1 h) came to 47 nM.

For `O=C(Nc1c[nH]nc1-c1cc(SC2CCC2)ccc1OC(F)F)c1cnn2cccnc12` [Example 9, N-[3-[5-cyclobutylsulfanyl-2-(difluoromethoxy)phenyl]-1H-pyrazol-4-yl]pyrazolo[1,5-a]pyrimidine-3-carboxamide], the Ki in experiment [1] turned out to be 0.14 nM; in experiment [3], 0.23 nM. Further, the IC50 in experiment [2] (Homo sapiens, BEAS-2B, 1 h) came to 7 nM.

Consider `CNC(=O)Cn1cc(NC(=O)c2cnn3cccnc23)c(-c2cc(SC(F)F)ccc2OC(F)F)n1` [Example 32, N-[3-[2-(difluoromethoxy)-5-(difluoromethylsulfanyl)phenyl]-1-[2-(methylamino)-2-oxo-ethyl]pyrazol-4-yl]pyrazolo[1,5-a]pyrimidine-3-carboxamide], for which the inhibition constant (Ki) in experiment [1] was 0.51 nM; in experiment [3], 0.35 nM. In addition, in experiment [2] (Homo sapiens, BEAS-2B, 1 h), the IC50 was 14 nM.

Values taken from patent publication US20220024945A1, “THERAPEUTIC COMPOUNDS AND COMPOSITIONS, AND METHODS OF USE THEREOF” (Genentech, Inc., priority 2017, published 2022).
